# In US20110044973A1, “TREATMENT OF CYSTIC DISEASE WITH LYSOPHOSPHATIDIC ACID ANTAGONISTS” (priority 2009, published 2011):
# System: mpkCCDc14 cell line
# Assay: Short-circuit current electrophysiology in renal principal cells
# Type: cell-based, mouse
# Conditions: FIG. 4
# Text: Described herein is the method of short-circuit electrophysiology used for detailed examination of the nature of the ion channels stimulated in response to cyst fluid. These studies utilized mouse principal cells of the kidney cortical collecting duct, clone 4 (mpkCCDc14) cell line. These cells have the characteristics of the principal cell type found in the distal portion of the renal nephron. Principal cells often line renal cysts. […] This finding is in agreement with Granthan et al. However, the activation of other ion channels by the fluid was also discovered. When examined in real time, the nature of channel activity by the cyst was quite different than the activity seen in response to forskolin, as shown in FIG. 1. These studies indicate that there are components found in cyst fluid that stimulate multiple ion transporters, which together cause electrolyte and fluid secretion into the cyst lumen.
# Electrophysiological testing of effects NASPA on short circuit current. Cell preparations were pre-incubated with NASPA (10 μM) or diluent (DMSO) for 15 minutes prior to administration of 10% fetal bovine serum (FBS). FBS was administered serosally at time zero.
# Electrophysiological testing of effects VPC 32183 on LPA induced increase in short circuit current. […]
smiles,measurement,setting,value
CCCCCCCCCCCCCCCC(=O)N[C@@H](COP(=O)(O)O)C(=O)O [NASPA],effect on response to LPA added as part of fetal bovine serum (short circuit current),"NASPA 10 μM pre-incubated 15 minutes, 10% FBS added serosally at time zero, versus diluent (DMSO)",antagonized the LPA added as part of the fetal bovine serum
same,effect on short circuit current when first added,"NASPA 10 μM, 15 minutes pre-incubation before 10% FBS",appeared to act like an agonist when first added
